Data: patent US20080234183A1, “Cell Penetrating Peptides” (priority 2002, published 2008)

Key:
Bowes cells = assay: Cell viability measurement (CellTiter-Glo); assay type: cell-based, human; details: 24 h in 10% FBS-MEM
Description: Bowes human melanoma cells were obtained from American Type Culture Collection (Manassas, Va.). Bowes cells were cultured in Minimal Essential Medium with Earie's sats complemented with Glutamax-I, non-essential amino acids, sodium pyruvate, penicillin, streptomycin (referred on figures as “MEM”) and 10% foetal bovine serum (FBS). All media components for Bowes cells were from invitrogen Corporation (Paisley, UK). Trypsin/EDTA was from PAA laboratories GmbH (Linz, Austria). Cells were subcultured once a week, seeding 200 000 cells per T75. For the viability assays, 50 000 cells (in 300 μl) were seeded per a well in a 24-well-plate a day before the experiment. K562 human erythroleukemia cells were obtained from American Type Culture Collection (Manassas, Va.). K562 cells were cultured in RPMI-1640 medium complemented with Glutamax-I, penicillin, streptomycin (referred in FIG. 32-35 as “RPMI”) and foetal bovine serum (7.5%). All media components for K562 cells were from invitrogen Corporation (Paisley, UK). […]
The stock solutions of the conjugates (1 mM) were prepared in sterile water and the stock solution of MTX in 10% DMSO in water. […] Then 300 μl was transferred to a white polystyrene FluoroNunc™ plate (Nunc A/S, Roskilde, Denmark) and luminescence was recorded at dual-scanning microplate spectrofluorometer (SPECTRAmax® GEMINI XS, Molecular Devices, Sunnyvale, Calif.).

cells = assay: Protein internalisation by YTA-2 of Fluo-Streptavidin; assay type: cell-based; details: 67 kDa fluorescein labelled streptavidin linked to biotinylated peptide
Description: FIG. 39. Protein internalisation by YTA-2 of Fluo-Streptavidin 37° C. and T/E, showing the delivery property of a selCPP.
FIG. 40. Protein internalisation by YTA-2 of Fluo-Streptavidin 4° C. and T/E, showing the delivery property and temperature independency of a selCPP.

MMP2 = target: T1, MMP2 (Homo sapiens, UniProt P08253); assay: Specific cleavage by matrix metallo proteinase-2; assay type: biochemical; details: mass spectrometry, data not shown
T1 construct: check the specific cleavage of YTA-2 ps by active MMP-2
T1 sequence (P08253 110-660): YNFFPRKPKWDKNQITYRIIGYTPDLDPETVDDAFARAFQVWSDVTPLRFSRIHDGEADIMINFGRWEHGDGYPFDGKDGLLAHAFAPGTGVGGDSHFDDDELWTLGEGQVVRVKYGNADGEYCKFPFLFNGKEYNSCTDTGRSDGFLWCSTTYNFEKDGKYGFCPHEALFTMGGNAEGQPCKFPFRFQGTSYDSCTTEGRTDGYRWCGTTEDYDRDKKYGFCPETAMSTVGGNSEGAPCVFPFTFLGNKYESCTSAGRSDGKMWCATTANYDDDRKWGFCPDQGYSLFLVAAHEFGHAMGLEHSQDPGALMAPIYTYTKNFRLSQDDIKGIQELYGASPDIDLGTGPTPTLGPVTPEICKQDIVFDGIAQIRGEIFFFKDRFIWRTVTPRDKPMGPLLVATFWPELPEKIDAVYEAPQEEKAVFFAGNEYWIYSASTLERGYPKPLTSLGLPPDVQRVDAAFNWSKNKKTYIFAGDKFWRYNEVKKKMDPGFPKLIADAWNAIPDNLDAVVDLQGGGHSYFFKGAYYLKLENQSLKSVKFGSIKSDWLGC
Description: (data not shown). […] The next step in the development of this technique is to check the specific cleavage of YTA-2 ps by active MMP-2. It is performed by a fluorescence/quencher assay, wherein the MMP-2 substrate YTA-2 ps upon cleavage increases in fluorescence intensity. The correct cleavage is further checked by mass spectrometry.

LoVo cells = assay: Internalisation of biotinylated selCPPs, fluorescence microscopy; assay type: cell-based, human
Description: One aspect of the present invention thus comprises a method for screening the cellular uptake of a broad variety of CPPs in vitro, wherein cells are grown on glass cover slips to suitable, such as 50%, density, whereupon the media is changed to serum free and a blotinylated peptide solution is added. The cells are then incubated, washed, fixed and the peptides are visualised by staining with, e.g. avidin-FITC, or streptavidin-TRITC, and the cell nuclei are counterstained, e.g. with Hoechst. Images are preferably obtained with a fluorescence microscope and evaluated.
FIG. 5. Example of inactivated selCPP. Internalisation of YTA-2 (A) compared to YTA-2 ps (B) In LoVo cells, both biotynilated peptides detected by TRITC-avidin at 37° C.
The cells were grown on round glass cover slips (12 mm, GTF, Sweden) in a 24-well plate to approximately 50% confluence. The media was changed to serum free and the biotinylated peptide solutions were added. The cells were incubated for 30 min at 37 or 4° C. The cells were washed twice with PBS, fixed with 4% paraformaldehyde solution 15 min at room temperature (dark) and then permeabilised in 30 mM HEPES buffer containing 0.5% w/v Triton X-100, 3 min on Ice. Sites for unspecific binding were blocked In PBS containing 3% (w/v) bovine serum albumin, overnight at 4° C. The peptides were visualised by staining with avidin-FrTC or streptavidin-TRITC (Molecular Probes, the Netherlands). The cell nuclei were stained with Hoechst 33258 (0.5 μg/ml) for 5 min, after which the cover slips were washed 3 times with PBS and mounted in 25% glycerol in PBS. The images were obtained with a Leica DM IRE2 fluorescence microscope (Leica Microsystem., Sweden) and processed in PhotoShop 6.0 software (Adobe Systems Inc., CA) (See e.g. FIG. 38-40).

Substance | toxic effect on cell viability (Bowes cells) | cargo transport (cells) | cleavage by MMP2 (MMP2) | Comment (staining/localisation) (LoVo cells) | Entry into cells (LoVo cells; 37° and 4° C.)
Apa-γGlu-Gly-pVEC | more toxic than Apa-Glu-Gly-pVEC |  |  |  | 
YTAIAWVKAFIRKLRK [YTA-2] |  | can transport large cargo molecules into cells | confirmed by mass spectrometry | stain also nuclear | can efficiently enter cells
